Results from patent US20240124456A1, “AZA-ERGOLINE DERIVATIVE AND PREPARATION METHOD THEREFOR AND APPLICATION THEREOF” (SHANGHAITECH UNIVERSITY, priority 2021, published 2024).
Where two headings read alike, the source gives them in different places.

What was measured:
5-HT2A receptor = 5-HT2A receptor (Homo sapiens (Human), UniProt P28223); assay: Radioligand competition binding, affinity for 5-HT2A receptor ([3H]-ketanserin); conditions: for Ki: [3H]-ketanserin, HEK-293T membranes; for binding selectivity, dopamine D2 receptor versus 5-HT2A receptor: Table 3 compared with Table 1
Sequence of 5-HT2A receptor (P28223 whole entry): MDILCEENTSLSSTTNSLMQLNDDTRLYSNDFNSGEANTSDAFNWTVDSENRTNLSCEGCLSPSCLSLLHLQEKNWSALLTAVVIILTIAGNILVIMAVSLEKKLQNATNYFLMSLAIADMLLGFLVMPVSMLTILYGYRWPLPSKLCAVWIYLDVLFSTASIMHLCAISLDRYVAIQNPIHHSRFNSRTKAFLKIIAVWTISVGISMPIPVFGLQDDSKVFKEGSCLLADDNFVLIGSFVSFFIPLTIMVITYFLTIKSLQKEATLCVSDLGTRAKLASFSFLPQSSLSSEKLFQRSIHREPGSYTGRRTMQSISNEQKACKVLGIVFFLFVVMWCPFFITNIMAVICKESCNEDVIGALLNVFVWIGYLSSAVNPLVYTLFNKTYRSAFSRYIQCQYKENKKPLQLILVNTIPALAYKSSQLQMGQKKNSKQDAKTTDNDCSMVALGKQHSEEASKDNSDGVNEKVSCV
Protocol: The affinity of the compounds of the present invention for the 5-HT2A receptors was determined by the method of radioligand competition experiment. In the first step, a cell membrane component containing specific 5-HT2A receptor was prepared. A 10 cm dish was used for transfection with 10 ng of the 5-HT2A receptor and 40 μL of PEI. […] A vacuum pump was used to suck off the culture medium, 3 mL of lysis buffer was added to each well, and the cells were placed in a 4° C. freezer for 10 minutes. After the cells were detached, the cells were transferred to a 15 mL centrifuge tube and centrifuged at 1500 rpm for 5 minutes at 4° C., and the supernatant was discarded. The cell pellet was transferred to a tissue homogenizer, and 3 mL of lysis buffer was added and fully ground until the cells were broken. Then, cell suspension was equally divided into several EP tubes, centrifuged at 4° C. and 12000 rpm for 5 min, and the supernatant was discarded. The precipitate was the cell membrane component containing the 5-HT2A receptor. […] First, a standard binding buffer was added to the cell membrane component containing the 5-HT2A receptor, and the cell membrane was disrupted and resuspended with an electric tissue homogenizer. 30 μL of membrane protein suspension was added to each well of a 96-well plate. Then, 30 μL of different drugs were added to the 96-well plate from left to right to ensure that the final drug concentrations were 10^−5 M, 10^−6 M, 10^−7 M, 10^−8 M, 10^−9 M and 0 M, with two replicates per treatment. Next, 30 μL [^3H]-ketanserin was added to each well of the 96-well plate. The plate was incubated for 2 hours at room temperature in the dark. Detection. The machine reading value reflected the amount of [^3H]-ketanserin bound on the membrane, and after further data processing, the affinity Ki value of different compounds for 5-HT2A receptor was obtained.

C57B6 male mice [1] = assay: Freezing behavior test; format: in vivo; conditions: 10 mg/kg
Protocol: Experimental method: The experimental animals were C57B6 male mice, n=8 in each group. Mice were first injected with different compounds, and after a certain period of time (30 min or 60 min), the mice were in an upright and unnatural state by placing their forelimbs on a high glass hanging rod (about 5 cm from the ground). Then the time for the mice to maintain this state was measured, and the length of time was used to determine the freezing effect of the drug on the mice.

[2] = Pharmacokinetic properties in C57 male mice, single dose (plasma, LC-MS/MS); format: in vivo; conditions: for AUC(0-inf): read-out: Area under the drug-time curve AUC0-inf; for AUC(0-t): read-out: Area under the drug-time curve AUC0-t; for MRT: read-out: Mean residence time MRTPO; for half-life: read-out: Terminal elimination half-life t1/2 (converted); for bioavailability: read-out: Bioavailability F; for Cmax: read-out: Drug peak concentration Cmax; for Tmax: read-out: Time to peak tmax
Protocol: 1. Test of the pharmacokinetic properties of compound (−)-I-10 administered to C57 male mice by single intragastric administration, intraperitoneal injection and intravenous injection
Compound (−)-I-10 was administered in a single dose in C57 male mice, and then blood samples were collected at different time points, the concentration of the compound in mouse plasma was determined by LC-MS/MS and the relevant pharmacokinetic parameters were calculated to investigate the pharmacokinetics of the compound in the mice.
27 male C57 mice were provided by Suzhou Zhaoyan Experimental Animal Co., Ltd., and the experiment was carried out according to Table 4 below.
0.030 mL of blood was taken from each animal through the orbit each time and anticoagulated with EDTA-K2, and the collection time points were: 0, 5, 15, 30 min, 1, 2, 4, 6, 8, 24 h after administration of the test substance. Blood samples were placed on ice after collection, and the plasma was separated by centrifugation within 30 minutes (centrifugation conditions: 5000 rpm, 10 minutes, 4° C.) and stored at −80° C. until analysis.
Data acquisition and control system software was Analyst 1.5.1 software (Applied Biosystem). The sample peak integration method of the spectrum was automatic integration; the ratio of the peak area of the sample to the peak area of the internal standard was used as an index, and regression was performed with the concentration of the sample. Regression method: linear regression with a weight factor of 1/X2. Pharmacokinetic parameters were analyzed using WinNonlin Professional v6.3 (Pharsight, USA) using non-compartmental models. Cmax was the measured maximum drug concentration in blood, the area under the drug concentration in blood-time curve AUC (0→t) was calculated by the trapezoidal method, and Tmax was the time to peak of the drug concentration in blood after administration. The experimental data were expressed by “mean=standard deviation” (Mean±[…], n≥3) or “mean” (Mean, n=2).

C57B6 male mice [3] = assay: Tail suspension experiment after 5 h restraint (depression-like behavior); format: in vivo; conditions: for Immobility time, tail suspension experiment: restraint for five hours
Protocol: The experimental animals were C57B6 male mice, n=8 in each group. Firstly, the C57B6 mice were induced to develop depression-related behavioral representations by restraining the mice for 5 hours, and then the effects of the compounds on their “depression-like” behaviors were determined by tail suspension and forced swimming experiments. The specific experimental procedure was as follows. First, the mice were restrained using a mouse fixator for tail vein injection. During the restraint process, all behavioral abilities of the mice were restricted under the condition of ensuring minimal pain to the mice. The mice were administered intraperitoneally once before and after restraint, respectively. After the restraint, the mice returned to the cage to recover for 30 minutes. After the 30 minutes, the mice in different groups were subjected to tail suspension or forced swimming to detect their “depression-like” behavior, respectively.
Tail suspension experiment: the tip of the tail of the mouse was fixed on the suspension rod of the iron stand by adhesive tape, and the mouse remained in the hanging position for 6 minutes. The first 2 minutes was the adaptation period, and no data collection was performed, and the time of the intermittent immobility behavior of the mouse was recorded in the next 4 minutes. The duration of this immobility state was used to measure the degree of behavioral despair in the mouse. Data statistics were carried out using Student-t-test, p<0.05 was *, p<0.01 was **, p<0.001 was ***, p<0.0001 was ****.

[4] = mouse, plasma, intravenous injection 1 mg/kg
[5] = mouse, plasma, ip, intraperitoneal injection 1 mg/kg
[6] = mouse, plasma, oral administration 5 mg/kg

CN(C)C(=O)N[C@H]1CC[C@H](CCN2CCN3c4cccc5[nH]cc(c45)C[C@@H]3C2)CC1 [(+)-I-10]
affinity for 5-HT2A receptor (in words) (5-HT2A receptor): very weak affinity
Ki (5-HT2A receptor): 2480 nM

CN(C)C(=O)N[C@H]1CC[C@H](CCN2CCN3c4cccc5[nH]cc(c45)C[C@H]3C2)CC1 [(−)-I-10]
freezing induction effect on mice (in words) (C57B6 male mice [1]): no freezing induction effect
Freezing time (C57B6 male mice [1]; 30 minutes after administration): 2.194 ± 0.2524 s
Freezing time (C57B6 male mice [1]; 60 minutes after administration): 2.165 ± 0.3256 s
pharmacokinetic properties (in words) [2]: good pharmacokinetic properties
Terminal elimination rate Kel ([2]; intraperitoneal injection 1 mg/kg): 0.886 h⁻¹
Terminal elimination rate Kel ([2]; intravenous injection 1 mg/kg): 0.805 h⁻¹
Vd ([2]; mouse, plasma, intravenous injection 1 mg/kg, read-out: Apparent volume of distribution Vdss): 4.86 L/kg
AUC(0-inf) [2, 4]: 215 ng·h/mL
AUC(0-t) [2, 4]: 211 ng·h/mL
clearance ([2]; mouse, plasma, intravenous injection 1 mg/kg, read-out: Clearance CL): 77.6 mL/min/kg
MRT [2, 4]: 62.4 min
half-life [2, 4]: 51.7 min
AUC(0-inf) [2, 5]: 175 ng·h/mL
AUC(0-t) [2, 5]: 172 ng·h/mL
bioavailability [2, 5]: 81.4%
Cmax [2, 5]: 271 ng/mL
MRT [2, 5]: 46.2 min
half-life [2, 5]: 46.9 min
Tmax [2, 5]: 5 min
AUC(0-inf) [2, 6]: 596 ng·h/mL
AUC(0-t) [2, 6]: 591 ng·h/mL
bioavailability [2, 6]: 55.9%
Cmax [2, 6]: 558 ng/mL
MRT [2, 6]: 89.4 min
half-life [2, 6]: 69 min
Tmax [2, 6]: 5 min
Terminal elimination rate Kel ([2]; oral administration 5 mg/kg): 0.604 h⁻¹
inhibition of restraint-induced depression-like behavior (in words) (C57B6 male mice [3]; 0.4 mg/kg and 0.1 mg/kg, tail suspension and forced swimming): significantly inhibit
Immobility time, tail suspension experiment (C57B6 male mice [3]; 0.00625 mg/kg intraperitoneal): 132.6 s
Immobility time, tail suspension experiment (C57B6 male mice [3]; 0.025 mg/kg intraperitoneal): 101.8 s
Immobility time, tail suspension experiment (C57B6 male mice [3]; 0.1 mg/kg intraperitoneal): 90.31 s
Immobility time, tail suspension experiment (C57B6 male mice [3]; 0.4 mg/kg intraperitoneal): 72.66 s
affinity for 5-HT2A receptor (in words) (5-HT2A receptor): very weak affinity
binding selectivity, dopamine D2 receptor versus 5-HT2A receptor (5-HT2A receptor): more than 100 times
Ki (5-HT2A receptor): 2630 nM

O=c1ccc2ccc(OCCCCN3CCN4c5cccc6[nH]cc(c56)CC4C3)cc2[nH]1 (racemic) [Compound I-2, 7-(4(4,6,6a,7,9,10-hexahydro-8H-pyrazino[1,2-a]pyrrolo[4,3,2-de]quinolin-8-yl)butoxy)quinolin-2(1H)-one]
binding selectivity, dopamine D2 receptor versus 5-HT2A receptor (5-HT2A receptor): more than 100 times
Ki (5-HT2A receptor): 907 nM

O=C1CCc2ccc(OCCCCN3CCN4c5cccc6[nH]cc(c56)CC4C3)cc2N1 (stereo not drawn) [Compound I-1, 7-(4(4,6,6a,7,9,10-hexahydro-8H-pyrazino[1,2-a]pyrrolo[4,3,2-de]quinolin-8-yl)butoxy)-3,4-dihydroquinolin-2(1H)-one]
affinity for 5-HT2A receptor (in words) (5-HT2A receptor): very weak affinity
binding selectivity, dopamine D2 receptor versus 5-HT2A receptor (5-HT2A receptor): more than 100 times
Ki (5-HT2A receptor): 3640 nM
